Measured values from ChEMBL document CHEMBL1201862, “PubChem BioAssay data set” (2004).
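In this assay, cells in 96-well plates receive the compound at five concentrations for 48 hours. Endpoints are linearly interpolated between the surrounding concentrations. GI50 marks 50% less growth.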 Calls of active or inactive are those of the source. Rule as the data show it: active = GI50 up to about 1.1 µM and inactive = higher.

Experiments:
Test in all cases: NCI anticancer screen, dose series, 48 h
DU-145 = test system: DU-145
SK-MEL-2 = test system: SK-MEL-2
SW-620 = test system: SW-620
RPMI-8226 = test system: RPMI-8226
U-251 = test system: U-251
TK-10 = test system: TK-10
MDA-MB-231 = test system: MDA-MB-231
OVCAR-4 = test system: OVCAR-4
HCT-15 = test system: HCT-15
OVCAR-3 = test system: OVCAR-3
NCI-H23 = test system: NCI-H23
T47D = test system: T47D
786-0 = test system: 786-0
SF-295 = test system: SF-295
BT-549 = test system: BT-549
HCT-116 = test system: HCT-116
EKVX = test system: EKVX
HOP-62 = test system: HOP-62
A549 = test system: A549
IGROV-1 = test system: IGROV-1
M14 = test system: M14
SN12C = test system: SN12C
MDA-N = test system: MDA-N
OVCAR-5 = test system: OVCAR-5
SF-539 = test system: SF-539
HOP-92 = test system: HOP-92
RXF 393 = test system: RXF 393
SK-OV-3 = test system: SK-OV-3
A498 = test system: A498
KM12 = test system: KM12
UACC-257 = test system: UACC-257
CAKI-1 = test system: CAKI-1
NCI-H226 = test system: NCI-H226
NCI-H460 = test system: NCI-H460
COLO 205 = test system: COLO 205
OVCAR-8 = test system: OVCAR-8
HT-29 = test system: HT-29
MCF7 = test system: MCF7
UO-31 = test system: UO-31
K562 = test system: K562
ACHN = test system: ACHN
MDA-MB-435 = test system: MDA-MB-435
SK-MEL-28 = test system: SK-MEL-28
CCRF-CEM = test system: CCRF-CEM
UACC-62 = test system: UACC-62
HCC 2998 = test system: HCC 2998
SF-268 = test system: SF-268
LOX IMVI = test system: LOX IMVI
SNB-75 = test system: SNB-75
Malme-3M = test system: Malme-3M
SR = test system: SR
PC-3 = test system: PC-3
NCI-H522 = test system: NCI-H522
SNB-19 = test system: SNB-19
Hs-578T = test system: Hs-578T
SK-MEL-5 = test system: SK-MEL-5
MOLT-4 = test system: MOLT-4
NCI/ADR-RES = test system: NCI/ADR-RES
HL-60 = test system: HL-60

## O=C(O[C@H]1CCN2C[C@H]3C[C@H](CN4C(=O)CCC[C@H]34)[C@@H]2C1)c1ccc(O)cc1
DU-145
  GI50: > 100 µM (inactive)
SK-MEL-2
  GI50: > 100 µM (inactive)
SW-620
  GI50: > 100 µM (inactive)
RPMI-8226
  GI50: > 100 µM (inactive)
U-251
  GI50: > 100 µM (inactive)
TK-10
  GI50: > 100 µM (inactive)
MDA-MB-231
  GI50: > 100 µM (inactive)
OVCAR-4
  GI50: > 100 µM (inactive)
HCT-15
  GI50: > 100 µM
OVCAR-3
  GI50: > 100 µM (inactive)
NCI-H23
  GI50: > 100 µM (inactive)
T47D
  GI50: > 100 µM (inactive)
786-0
  GI50: > 100 µM (inactive)
SF-295
  GI50: > 100 µM (inactive)
BT-549
  GI50: > 100 µM (inactive)
HCT-116
  GI50: > 100 µM (inactive)
EKVX
  GI50: > 100 µM (inactive)
HOP-62
  GI50: > 100 µM (inactive)
A549
  GI50: > 100 µM (inactive)
IGROV-1
  GI50: > 100 µM (inactive)
M14
  GI50: > 100 µM (inactive)
SN12C
  GI50: > 100 µM (inactive)
MDA-N
  GI50: > 100 µM (inactive)
OVCAR-5
  GI50: > 100 µM (inactive)
SF-539
  GI50: > 100 µM (inactive)
HOP-92
  GI50: > 100 µM (inactive)
RXF 393
  GI50: > 100 µM (inactive)
SK-OV-3
  GI50: > 100 µM (inactive)
A498
  GI50: > 100 µM (inactive)
KM12
  GI50: > 100 µM (inactive)
UACC-257
  GI50: > 100 µM (inactive)
CAKI-1
  GI50: > 100 µM (inactive)
NCI-H226
  GI50: > 100 µM (inactive)
NCI-H460
  GI50: > 100 µM (inactive)
COLO 205
  GI50: > 100 µM (inactive)
OVCAR-8
  GI50: > 100 µM (inactive)
HT-29
  GI50: > 100 µM (inactive)
MCF7
  GI50: > 100 µM (inactive)
UO-31
  GI50: > 100 µM (inactive)
K562
  GI50: > 100 µM (inactive)
ACHN
  GI50: > 100 µM (inactive)
MDA-MB-435
  GI50: > 100 µM (inactive)
SK-MEL-28
  GI50: > 100 µM (inactive)
CCRF-CEM
  GI50: > 100 µM (inactive)
UACC-62
  GI50: > 100 µM (inactive)
HCC 2998
  GI50: > 100 µM (inactive)
SF-268
  GI50: > 100 µM (inactive)
LOX IMVI
  GI50: > 100 µM (inactive)
SNB-75
  GI50: > 100 µM (inactive)
Malme-3M
  GI50: > 100 µM (inactive)
SR
  GI50: > 100 µM (inactive)
PC-3
  GI50: > 100 µM (inactive)
NCI-H522
  GI50: > 100 µM (inactive)
SNB-19
  GI50: > 100 µM (inactive)
Hs-578T
  GI50: > 100 µM (inactive)

## CC1CNC(c2cccc(OCc3ccc(COc4cccc(C5=NC(C)CN5)c4)cc3)c2)=N1 (configuration not stated)
DU-145
  GI50: 50.8 µM (inactive)
SK-MEL-2
  GI50: 20.8 µM (inactive)
SW-620
  GI50: 42.6 µM (inactive)
RPMI-8226
  GI50: 15.6 µM (inactive)
U-251
  GI50: 35.6 µM (inactive)
TK-10
  GI50: 27.1 µM (inactive)
MDA-MB-231
  GI50: 42.3 µM (inactive)
OVCAR-4
  GI50: 49.7 µM (inactive)
HCT-15
  GI50: > 100 µM
OVCAR-3
  GI50: 67.9 µM (inactive)
NCI-H23
  GI50: 43.7 µM (inactive)
T47D
  GI50: 35.9 µM (inactive)
786-0
  GI50: 34.1 µM (inactive)
SF-295
  GI50: 66.8 µM (inactive)
BT-549
  GI50: 61.5 µM (inactive)
HCT-116
  GI50: 23.6 µM (inactive)
EKVX
  GI50: 45.8 µM (inactive)
HOP-62
  GI50: 40.6 µM (inactive)
A549
  GI50: 40.6 µM (inactive)
IGROV-1
  GI50: > 100 µM (inactive)
M14
  GI50: > 100 µM (inactive)
SN12C
  GI50: 19.5 µM (inactive)
MDA-N
  GI50: 38.6 µM (inactive)
OVCAR-5
  GI50: 40.1 µM (inactive)
SF-539
  GI50: 16.3 µM (inactive)
HOP-92
  GI50: > 100 µM (inactive)
RXF 393
  GI50: 40.7 µM (inactive)
SK-OV-3
  GI50: > 100 µM (inactive)
A498
  GI50: > 100 µM (inactive)
KM12
  GI50: 22.7 µM (inactive)
UACC-257
  GI50: 12.6 µM (inactive)
CAKI-1
  GI50: > 100 µM (inactive)
NCI-H460
  GI50: 22.5 µM (inactive)
COLO 205
  GI50: 17 µM (inactive)
OVCAR-8
  GI50: 56.8 µM (inactive)
SK-MEL-5
  GI50: 22.9 µM (inactive)
HT-29
  GI50: 25.4 µM (inactive)
MCF7
  GI50: 28.2 µM (inactive)
UO-31
  GI50: > 100 µM (inactive)
K562
  GI50: 5.7 µM (inactive)
ACHN
  GI50: > 100 µM (inactive)
MOLT-4
  GI50: 19.3 µM (inactive)
MDA-MB-435
  GI50: 45.5 µM (inactive)
SK-MEL-28
  GI50: 61.7 µM (inactive)
NCI/ADR-RES
  GI50: > 100 µM (inactive)
CCRF-CEM
  GI50: 18.9 µM (inactive)
UACC-62
  GI50: 99.5 µM (inactive)
HCC 2998
  GI50: 24 µM (inactive)
SF-268
  GI50: 35.6 µM (inactive)
LOX IMVI
  GI50: 22 µM (inactive)
SNB-75
  GI50: 22.2 µM (inactive)
Malme-3M
  GI50: 58.5 µM (inactive)
PC-3
  GI50: 28.9 µM (inactive)
NCI-H522
  GI50: 23 µM (inactive)
HL-60
  GI50: 23.2 µM (inactive)
SNB-19
  GI50: 68.1 µM (inactive)
Hs-578T
  GI50: 20.2 µM (inactive)
